“And” between values parts separate entries of the source, which are not always exact repeats. Equal entries are not always repeated.
Tested on: tumors derived from LNCaP cells
Assay: PET/CT imaging and biodistribution of F-18 labeled HTK-01069 and HTK-01070 in tumor-bearing mice
Format: in vivo, mouse (NODSCID 1L2RγKO male mice)
Protocol: LNCap cell line used in the tumor model was obtained commercially from ATTC (LNCaP clone FGC, CRL-1740). It was established from a metastatic site of left supraclavicular lymph node of human prostatic adenocarcinoma. Cells were cultured in PRMI 1640 (StemCell Technologies, Vancouver, BC) supplemented by 10% FBS, 100 U/mL penicillin and 100 μg/mL streptomycin at 37° C. in a humidified incubator containing 5% CO2. Cells grown to 80-90% confluence were then washed with sterile phosphate-buffered saline (1×PBS pH 7.4) and trypsinization. The collected cells number was counted with Hemacytometer (Hausser Scientific).
Tumor implantation: Imaging and biodistribution experiments were performed using NODSCID 1L2RγKO male mice. Three or four mice in each cage equipped with enrichments. The mice were maintained and the experiments were conducted in according to the guidelines established by Canadian Council on Animal Care and approved by Animal Ethics Committee of the University of British Columbia. Mice were housed under pathogen-free conditions and kept on twelve hours light and twelve hours dark cycle in the Animal Research Centre, British Columbia Cancer Research Centre, Vancouver, Canada.
Mice were anesthetized by inhalation with 2.5% isoflurane in 2.0 L/min of oxygen during cells implantation. Mice were implanted subcutaneously with 1×10^7 LNCaP cells behind left shoulder. Mice were imaged or used in biodistribution studies when the tumor grew up to reach 5-8 mm in diameter during 5-6 weeks.
PET/CT Imaging: PET imaging experiments were conducted using Siemens inveon micro PET/CT scanner. Each tumor bearing mouse was injected ˜6.44 MBq of F-18 labeled HTK-01069 and ˜7.08 MBq of F-18 labeled HTK-01070 through the tail vein under anesthesia. After one hour, the mice were sedated again with 2% isoflurane inhalation and positioned in the scanner. Static PET imaging was performed to determined activity uptake of tumor and other organs. A CT scan was obtained for localization and attenuation correction after segmentation for reconstructing the PET images. The data was acquired by scanning the mice for 10 minutes each. The mice were kept warm by a heating pad during acquisition. The mice were euthanized after imaging and followed by biodistribution. Please see FIGS. 2 and 3 of this specification for reconstructed PET images for 1L2RγKO mice injected with HTK-01069 and HTK-01070 respectively.
Blood was withdrawn immediately, and the organs of interest were quickly removed. Each organ was weighed and the tissue radioactivity was measured with a Cobra II gamma counter (Packard), normalized to the injected dose using a standard curve and expressed as the percentage of the injected dose per gram of tissue (% ID/g). Biodistribution data are shown for HTK-01069 in Tables 5, 6 and 7 and HTK-01070 in Tables 8, 9, 10 of the specification respectively.

[1] = 1 h p.i. with co-injection of 0.5 mg DCFPyL, Avg
[2] = 1 h p.i. with co-injection of 0.5 mg DCFPyL, single mice

With C[N+](C)(Cc1cn(Cc2ccc(C(=O)NCCCC[C@H](NC(=O)N[C@@H](CCC(=O)O)C(=O)O)C(=O)O)cc2)nn1)C[B-](F)(F)[18F] [F-18 HTK-01070] the “Biodistribution Adrenals” value [1] was 0.20 % ID/g, the “Biodistribution Blood” value [1] was 0.46 % ID/g and the “Biodistribution Bone” value [1] was 0.12 % ID/g. For the same compound, the “Biodistribution Brain” value [1] was 0.02 % ID/g, the “Biodistribution Fat” value [1] was 0.04 % ID/g and the “Biodistribution Heart” value [1] was 0.22 % ID/g. For the same compound, the “Biodistribution Intestine” value [1] was 0.31 % ID/g, the “Biodistribution Kidney” value [1] was 2.11 % ID/g and the “Biodistribution Liver” value [1] was 0.06 % ID/g. For the same compound, the “Biodistribution Lung” value [1] was 0.09 % ID/g, the “Biodistribution Muscle” value [1] was 0.30 % ID/g and the “Biodistribution Pancreas” value [1] was 1.76 % ID/g. For the same compound, the “Biodistribution Seminal” value [1] was 1.87 % ID/g, the “Biodistribution Spleen” value [1] was 0.06 % ID/g and the “Biodistribution Stomach” value [1] was 0.09 % ID/g. The “Biodistribution Tail” value [1] was 0.38 % ID/g, the “Biodistribution Testes” value [1] was 0.08 % ID/g and the “Biodistribution Tumour” value [1] was 0.27 % ID/g. The “Biodistribution Adrenals” value [2] was 0.23 % ID/g and 0.26 % ID/g and 0.17 % ID/g and 0.16 % ID/g, the “Biodistribution Brain” value [2] was 0.02 % ID/g and the “Biodistribution Heart” value [2] was 0.21 % ID/g and 0.27 % ID/g and 0.20 % ID/g and 0.19 % ID/g. The “Biodistribution Intestine” value [2] was 0.31 % ID/g and 0.30 % ID/g and 0.28 % ID/g and 0.32 % ID/g, the “Biodistribution Kidney” value [2] was 2.40 % ID/g and 2.05 % ID/g and 1.96 % ID/g and the “Biodistribution Liver” value [2] was 0.06 % ID/g and 0.08 % ID/g and 0.07 % ID/g and 0.05 % ID/g. The “Biodistribution Lung” value [2] was 0.11 % ID/g and 0.10 % ID/g and 0.07 % ID/g and 0.08 % ID/g, the “Biodistribution Muscle” value [2] was 0.31 % ID/g and 0.38 % ID/g and 0.23 % ID/g and 0.29 % ID/g and the “Biodistribution Pancreas” value [2] was 1.92 % ID/g and 1.65 % ID/g and 1.88 % ID/g and 1.57 % ID/g. For the same compound, the “Biodistribution Spleen” value [2] was 0.06 % ID/g and 0.05 % ID/g, the “Biodistribution Stomach” value [2] was 0.09 % ID/g and 0.14 % ID/g and 0.07 % ID/g and the “Biodistribution Tail” value [2] was 0.45 % ID/g and 0.35 % ID/g and 0.36 % ID/g. For the same compound, the “Biodistribution Testes” value [2] was 0.09 % ID/g and 0.10 % ID/g and 0.06 % ID/g, the “Biodistribution Tumour” value [2] was 0.35 % ID/g and 0.26 % ID/g and 0.21 % ID/g and the “Biodistribution Adrenals” value (1 h p.i., Avg) was 4.65 % ID/g. The “Biodistribution Blood” value (1 h p.i., Avg) was 0.52 % ID/g, the “Biodistribution Bone” value (1 h p.i., Avg) was 0.44 % ID/g and the “Biodistribution Brain” value (1 h p.i., Avg) was 0.04 % ID/g. The “Biodistribution Fat” value (1 h p.i., Avg) was 0.73 % ID/g, the “Biodistribution Heart” value (1 h p.i., Avg) was 0.33 % ID/g and the “Biodistribution Intestine” value (1 h p.i., Avg) was 0.33 % ID/g. For the same compound, the “Biodistribution Kidney” value (1 h p.i., Avg) was 71.70 % ID/g, the “Biodistribution Liver” value (1 h p.i., Avg) was 1.69 % ID/g and the “Biodistribution Lung” value (1 h p.i., Avg) was 1.39 % ID/g. The “Biodistribution Muscle” value (1 h p.i., Avg) was 0.23 % ID/g, the “Biodistribution Pancreas” value (1 h p.i., Avg) was 0.33 % ID/g and the “Biodistribution Seminal” value (1 h p.i., Avg) was 3.13 % ID/g. The “Biodistribution Spleen” value (1 h p.i., Avg) was 5.01 % ID/g, the “Biodistribution Stomach” value (1 h p.i., Avg) was 0.10 % ID/g and the “Biodistribution Tail” value (1 h p.i., Avg) was 0.76 % ID/g. For the same compound, the “Biodistribution Testes” value (1 h p.i., Avg) was 0.67 % ID/g, the “Biodistribution Tumour” value (1 h p.i., Avg) was 8.28 % ID/g and the “Biodistribution Blood” value (1 h p.i., single mice) was 0.46 % ID/g and 0.63 % ID/g and 0.50 % ID/g and 0.51 % ID/g. For the same compound, the “Biodistribution Bone” value (1 h p.i., single mice) was 0.37 % ID/g and 0.33 % ID/g and 0.58 % ID/g and 0.52 % ID/g and 0.38 % ID/g and 0.45 % ID/g, the “Biodistribution Brain” value (1 h p.i., single mice) was 0.03 % ID/g and 0.04 % ID/g and 0.05 % ID/g and the “Biodistribution Heart” value (1 h p.i., single mice) was 0.36 % ID/g and 0.47 % ID/g and 0.37 % ID/g and 0.27 % ID/g and 0.24 % ID/g and 0.28 % ID/g. For the same compound, the “Biodistribution Intestine” value (1 h p.i., single mice) was 0.26 % ID/g and 0.32 % ID/g and 0.42 % ID/g and 0.37 % ID/g and 0.31 % ID/g, the “Biodistribution Kidney” value (1 h p.i., single mice) was 62.45 % ID/g and 54.11 % ID/g and 52.66 % ID/g and 91.10 % ID/g and 76.59 % ID/g and 93.32 % ID/g and the “Biodistribution Liver” value (1 h p.i., single mice) was 1.51 % ID/g and 1.53 % ID/g and 1.65 % ID/g and 1.90 % ID/g and 1.60 % ID/g and 1.94 % ID/g. For the same compound, the “Biodistribution Lung” value (1 h p.i., single mice) was 1.32 % ID/g and 1.35 % ID/g and 1.24 % ID/g and 1.21 % ID/g and 1.59 % ID/g and 1.61 % ID/g, the “Biodistribution Muscle” value (1 h p.i., single mice) was 0.28 % ID/g and 0.21 % ID/g and 0.24 % ID/g and 0.17 % ID/g and 0.25 % ID/g and 0.22 % ID/g and the “Biodistribution Pancreas” value (1 h p.i., single mice) was 0.30 % ID/g and 0.33 % ID/g and 0.35 % ID/g and 0.28 % ID/g and 0.32 % ID/g and 0.41 % ID/g. The “Biodistribution Spleen” value (1 h p.i., single mice) was 5.58 % ID/g and 4.75 % ID/g and 5.97 % ID/g and 4.51 % ID/g and 4.95 % ID/g and 4.31 % ID/g, the “Biodistribution Stomach” value (1 h p.i., single mice) was 0.08 % ID/g and 0.09 % ID/g and 0.10 % ID/g and 0.16 % ID/g and 0.12 % ID/g and the “Biodistribution Testes” value (1 h p.i., single mice) was 0.94 % ID/g and 0.79 % ID/g and 0.49 % ID/g and 0.57 % ID/g and 0.58 % ID/g and 0.64 % ID/g. The “Biodistribution Tumour” value (1 h p.i., single mice) was 7.56 % ID/g and 10.45 % ID/g and 8.06 % ID/g and 8.60 % ID/g and 8.31 % ID/g and 6.70 % ID/g, the “Biodistribution Adrenals” value (2 h p.i., Avg) was 1.79 % ID/g and the “Biodistribution Blood” value (2 h p.i., Avg) was 0.16 % ID/g. The “Biodistribution Bone” value (2 h p.i., Avg) was 0.10 % ID/g, the “Biodistribution Brain” value (2 h p.i., Avg) was 0.02 % ID/g and the “Biodistribution Fat” value (2 h p.i., Avg) was 0.38 % ID/g. For the same compound, the “Biodistribution Heart” value (2 h p.i., Avg) was 0.47 % ID/g, the “Biodistribution Intestine” value (2 h p.i., Avg) was 0.25 % ID/g and the “Biodistribution Kidney” value (2 h p.i., Avg) was 42.78 % ID/g. For the same compound, the “Biodistribution Liver” value (2 h p.i., Avg) was 0.05 % ID/g, the “Biodistribution Lung” value (2 h p.i., Avg) was 0.09 % ID/g and the “Biodistribution Muscle” value (2 h p.i., Avg) was 0.35 % ID/g. For the same compound, the “Biodistribution Pancreas” value (2 h p.i., Avg) was 1.50 % ID/g, the “Biodistribution Seminal” value (2 h p.i., Avg) was 6.41 % ID/g and the “Biodistribution Spleen” value (2 h p.i., Avg) was 0.17 % ID/g. The “Biodistribution Stomach” value (2 h p.i., Avg) was 1.30 % ID/g, the “Biodistribution Tail” value (2 h p.i., Avg) was 0.56 % ID/g and the “Biodistribution Testes” value (2 h p.i., Avg) was 0.28 % ID/g. The “Biodistribution Tumour” value (2 h p.i., Avg) was 6.84 % ID/g, the “Biodistribution Brain” value (2 h p.i., single mice) was 0.02 % ID/g and 0.03 % ID/g and the “Biodistribution Heart” value (2 h p.i., single mice) was 0.32 % ID/g and 0.58 % ID/g and 0.55 % ID/g and 0.44 % ID/g and 0.46 % ID/g. The “Biodistribution Intestine” value (2 h p.i., single mice) was 0.21 % ID/g and 0.23 % ID/g and 0.26 % ID/g and 0.24 % ID/g and 0.32 % ID/g, the “Biodistribution Liver” value (2 h p.i., single mice) was 0.04 % ID/g and 0.06 % ID/g and 0.05 % ID/g and 0.07 % ID/g and the “Biodistribution Muscle” value (2 h p.i., single mice) was 0.31 % ID/g and 0.39 % ID/g and 0.27 % ID/g and 0.33 % ID/g and 0.44 % ID/g. The “Biodistribution Pancreas” value (2 h p.i., single mice) was 1.30 % ID/g and 1.76 % ID/g and 1.41 % ID/g and 1.23 % ID/g and 1.80 % ID/g, the “Biodistribution Testes” value (2 h p.i., single mice) was 0.23 % ID/g and 0.34 % ID/g and 0.26 % ID/g and 0.19 % ID/g and 0.36 % ID/g and the “Biodistribution Tumour” value (2 h p.i., single mice) was 6.12 % ID/g and 6.47 % ID/g and 7.93 % ID/g.
